Where “and” joins values, the source holds several entries; their conditions need not be identical. Identical values can stand only once.
Key:
HaLBD = assay: FP titration of MB4628 with HaLBD; format: binding, Helicoverpa armigera; settings: 36 nM MB4628, no CHAPS
Protocol: (§1) The standard FP assay buffer was 50 mM sodium phosphate, 100 mM NaCl, pH 7.4, containing 0.5 mg/ml bovine serum albumin. When required, preparative pipetting steps (such as dilution series) were typically done in conventional V-bottomed 96-well microplates (e.g. V-bottomed polypropylene, Greiner Bio-One, Cat. No. 651201). The assays themselves were set up in opaque black flat-bottomed 96-well plates designed for fluorescence measurements (e.g. Nunc, Cat. No. 237108). The final volume of all assays was 250 μl. The FP plate-reader was a POLARstar Optima (Cat. No. 413-201, BMG Labtechnologies, Offenburg, Germany) with fluorescence polarization optics (installed according to the manufacturer's instructions) and operated by FLUOstar Optima software in Plate Mode (Polarization). Excitation was done at 485 nm (filter 485) and emission was detected at 520 nm (filter 520p). The standard instrument setup involved a 3 sec/3 mm shake for the plate prior to commencing reading; readings used 200 flashes/assay. […]
(§2) A 250 μl sample of 30 nM fluorescein in 50 mM sodium phosphate, 100 mM NaCl, pH 7.4, was known to have a polarization value of 35 mP and was used to calibrate the FP plate-reader. […] Thereafter, at the commencement of each experimental session, the FP plate-reader was adjusted to give a reading of 100 mP for a 250 μl sample of 36 nM MB4628 in standard FP assay buffer. […]

MpLBD [1] = target: T1, MpLBD (Myzus persicae, UniProt A3EZJ9); assay: FP titration of MB4628 with MpLBD; format: binding
T1 sequence (A3EZJ9 70-308): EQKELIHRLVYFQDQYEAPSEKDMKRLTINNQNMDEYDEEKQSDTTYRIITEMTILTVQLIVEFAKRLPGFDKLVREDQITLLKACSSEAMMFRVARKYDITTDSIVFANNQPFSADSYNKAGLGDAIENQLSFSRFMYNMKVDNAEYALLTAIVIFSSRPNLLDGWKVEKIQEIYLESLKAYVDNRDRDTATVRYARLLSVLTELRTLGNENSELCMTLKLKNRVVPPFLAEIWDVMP
T1 sequence (A3EZK0 32-259 partner): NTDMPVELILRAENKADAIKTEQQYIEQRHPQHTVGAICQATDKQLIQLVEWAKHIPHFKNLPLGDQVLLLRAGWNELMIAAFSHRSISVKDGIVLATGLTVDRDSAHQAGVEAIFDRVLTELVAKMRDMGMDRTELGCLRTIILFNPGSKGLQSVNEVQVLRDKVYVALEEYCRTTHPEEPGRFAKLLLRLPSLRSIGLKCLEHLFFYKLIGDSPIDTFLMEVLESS
Protocol: (§3) The standard FP assay buffer was 50 mM sodium phosphate, 100 mM NaCl, pH 7.4, containing 0.5 mg/ml bovine serum albumin. When required, preparative pipetting steps (such as dilution series) were typically done in conventional V-bottomed 96-well microplates (e.g. V-bottomed polypropylene, Greiner Bio-One, Cat. No. 651201). The assays themselves were set up in opaque black flat-bottomed 96-well plates designed for fluorescence measurements (e.g. Nunc, Cat. No. 237108). The final volume of all assays was 250 μl. The FP plate-reader was a POLARstar Optima (Cat. No. 413-201, BMG Labtechnologies, Offenburg, Germany) with fluorescence polarization optics (installed according to the manufacturer's instructions) and operated by FLUOstar Optima software in Plate Mode (Polarization). Excitation was done at 485 nm (filter 485) and emission was detected at 520 nm (filter 520p). The standard instrument setup involved a 3 sec/3 mm shake for the plate prior to commencing reading; readings used 200 flashes/assay. Gain values were typically around 3000 for each channel, with a K-factor close or equal to 1.0.
(§4) A 250 μl sample of 30 nM fluorescein in 50 mM sodium phosphate, 100 mM NaCl, pH 7.4, was known to have a polarization value of 35 mP and was used to calibrate the FP plate-reader.
Receptor LBD titrations involved mixing a small volume (e.g. 2.5 μl) of diluted receptor LBD heterodimer stock with a larger volume (e.g. 247.5 μl) of standard FP assay buffer containing 36 nM MB4628. Where indicated, CHAPS was present at a final concentration of 2 mM. […] The assay mixtures were allowed to reach equilibrium, typically by incubating overnight at 4° C. and then equilibrating at room temperature (20° C.) for 2-4 h before reading the mP values. […]
The inhibitor concentration at this midpoint was deemed to be the IC50 value for the inhibitor. […] The Kd values for use in this equation were calculated from the basic FP titration curves (FIG. 3) using the knowledge that the receptor concentration at the titration midpoint is the value at which the receptor is half-saturated with MB4628. […]

BtLBD [2] = target: T2, BtLBD (Bemisia tabaci, UniProt A0A142K0N3); assay: FP titration of MB4628 with BtLBD; format: binding; settings: for Kd: 36 nM MB4628
Protocol: as §3, §4
Receptor LBD titrations involved mixing a small volume (e.g. 2.5 μl) of diluted receptor LBD heterodimer stock with a larger volume (e.g. 247.5 μl) of standard FP assay buffer containing 36 nM MB4628. Where indicated, CHAPS was present at a final concentration of 2 mM. Receptor dilutions were typically arranged to cover a wide concentration range, e.g. 0.005-50 nM functional receptor. The assay mixtures were allowed to reach equilibrium, typically by incubating overnight at 4° C. and then equilibrating at room temperature (20° C.) for 2-4 h before reading the mP values. When plotting the data, smooth curves were drawn for the FP titrations using a Flexicurve; these represent a more realistic fit to the data than the linear point-to-point plots shown (for convenience of printing) in FIG. 3.
(§5) The inhibitor concentration at this midpoint was deemed to be the IC50 value for the inhibitor. IC50 values were converted to Ki values using the Cheng-Prusoff equation (Cheng & Prusoff, 1973), as follows: Ki=IC50/(1+([MB4628]tot/Kd)) where [MB-4628]tot is the total concentration of MB4628 in the assay, and Kd is the dissociation constant for MB4628 with the relevant receptor under the conditions of the assay. The Kd values for use in this equation were calculated from the basic FP titration curves (FIG. 3) using the knowledge that the receptor concentration at the titration midpoint is the value at which the receptor is half-saturated with MB4628. The Kd is the free MB4628 concentration at this point, and must therefore be: Kd=[MB4628]tot−([receptor]midpoint)/2
The effect of omitting CHAPS from BtLBD competitive inhibition assays was tested directly. Thus, in a BtLBD experiment that departed from standard procedure, 10 nM functional BtLBD was incubated with 36 nM MB4628 and increasing concentrations of non-fluorescent ecdysteroids, but without CHAPS.

LcLBD = assay: FP titration of MB4628 with LcLBD; format: binding, Lucilia cuprina; settings: 36 nM MB4628, no CHAPS
Protocol: as §1, §2

[3] = target: MpLBD, recombinant M. persicae ecdysone receptor (Myzus persicae, UniProt A3EZJ9); assay: manual radioligand-based competitive inhibition assay ([3H]ponasterone A), MpLBD; format: binding
Protocol: The ability of inokosterone and fluorescent conjugates thereof to bind to recombinant M. persicae ecdysone receptor was assessed using the conventional radioligand binding assay in a competetive inhibition format (adapted from Koelle et al., 1991).
These procedures were performed manually, as follows. Assays were performed in EcR40 buffer [25 mM Hepes, 40 mM KCl, 10% glycerol, 1 mM sodium EDTA, 3 mM sodium azide] containing 0.5 mg/ml bovine serum albumin (BSA). An extract containing recombinant M. persicae edcdysone receptor, MpLBD, was prepared as described above and diluted in EcR40 buffer containing 0.5 mg/ml BSA to a concentration that generated filter counts around 10 000 cpm when the assay was done in the absence of competing ligands. […] Assays were set up to contain different final concentrations of fluorescent ecdysteroid by including the appropriate volumes of the relevant stock solutions. […] Each incubation was performed in a final volume of […] at room temperature (22° C.) for 90 min, whereupon it was held on ice until the filter adsorption/wash steps could be performed. Three 140 μl aliquots from each completed incubation were applied to glass microfibre filters (GF/C 24 mm diameter, Whatman, Cat. No. 1822024); i.e., every incubation generated three filters, each of which had been wet using 140 μl of the incubation mixture. After exposure to the liquid for 30 sec at room temperature, the wet filter was transferred to a vacuum sinter apparatus (Pyrex Filter Holder, Millipore Corp., Cat. No. XX1002500) and washed rapidly. Washing was done using 2×5 ml of ice-cold EcR40 buffer, intersperced with 3×0.5 ml buffer applied around the circumference of the filter to ensure that its edges were thoroughly rinsed. The damp filter was then transferred to a scintillation vial. When all the filters had been thus processed, 7 ml Packard InstaGel Plus scintillant was added to each scintillation vial. The sealed vials were vortexed and then incubated at room temperature for at least 2 h, during which time the filters became transparent. The vials were then scintillation counted (1 min per filter, tritium program, Packard TriCarb 2100TR scintillation counter). Datapoints were reported as the mean cpm value ±SEM for the three replicate filters arising from each incubation.
The inhibitor concentration at this midpoint was deemed to be the IC50 value for the inhibitor.

MpLBD [4] = target: T1, MpLBD; assay: miniaturized automated radioligand-based competition assay, MpLBD; format: binding; settings: 1.3 nM [3H]ponasterone A, no CHAPS, read-out: Ki from radioligand-based MpLBD assay
Protocol: (§6) Subsequently, a miniaturized and automated version of the radioligand-based competition assay was used with MpLBD and BtLBD to obtain Ki values for the non-radioactive, non-fluorescent ecdysteroids that would later be used to validate the competitive inhibition format of the FP assay. While the concept of the assay was unchanged from that described above, some aspects of its execution were different. […] The mixtures were again allowed to reach equilibrium, but this time for 4 h at room temperature. The MpLBD was then captured on a 96-filter array (Unifilter-96 GF/C, Packard, Cat. No. 6005174) and rinsed using the wash tool and vacuum block of the Biomek 2000. The back of each filter-plate was then manually sealed using a sheet of Packard BackSeal, and 25 μl Packard MicroScint-20 scintillation fluid was dispensed into each well. The top of each plate was sealed with Packard TopSeal-A and the filters were allowed to solvate overnight. […] Since the amount of bound radioactivity was at most 28% of the total present, no additional corrections for ligand depletion were applied.

MpLBD [5] = target: T1, MpLBD; assay: FP competitive inhibition assay with MB4628 tracer, MpLBD; format: binding; settings: 5 nM functional MpLBD, 36 nM MB4628, no CHAPS, Cheng-Prusoff; read-out: FP-derived Ki, MpLBD
Protocol: (§7) For competitive inhibition assays, each well contained standard FP assay buffer containing 36 nM MB4628 and either 5 nM functional MpLBD or 6 nM functional BtLBD. The BtLBD assays, but not the MpLBD ones, were routinely done in the presence of 2 mM CHAPS. The final volume of all assays were 250 μl.
as §5

BtLBD [6] = target: T2, BtLBD; assay: miniaturized automated radioligand-based competition assay, BtLBD; format: binding; settings: 1.3 nM [3H]ponasterone A, no CHAPS, read-out: Ki from radioligand-based BtLBD assay
Protocol: as §6

BtLBD [7] = target: T2, BtLBD; assay: FP competitive inhibition assay with MB4628 tracer, BtLBD; format: binding; settings: 6 nM functional BtLBD, 36 nM MB4628, 2 mM CHAPS, Cheng-Prusoff; read-out: FP-derived Ki, BtLBD
Protocol: as §7, §5

## CC(CCC(O)C(C)(O)C1CCC2(O)C3=CC(=O)C4CC(O)C(O)CC4(C)C3CCC12C)COC(=S)Nc1ccc2c(c1)C(=O)OC21c2ccc(O)cc2Oc2cc(O)ccc21 (stereo not drawn) [MB4628]
HaLBD
  FP titration curve midpoint, HaLBD: 3.5 nM functional receptor
  mPmax, HaLBD: 230 mP
MpLBD [1]; 36 nM MB4628, no CHAPS
  FP titration curve midpoint, MpLBD: 1.1-1.8 nM functional receptor
  maximum mP value (mPmax), MpLBD: 335 mP
MpLBD [1]; without CHAPS, 36 nM MB4628, read-out: Kd for MB4628 from FP titration curve, MpLBD
  Kd: 0.0353 µM
BtLBD [2]; 36 nM MB4628, 2 mM CHAPS, FIG. 3B experiment
  FP titration midpoint, BtLBD, 2 mM CHAPS: 1.5 nM functional BtLBD
BtLBD [2]; 36 nM MB4628, CHAPS-free, FIG. 3B experiment
  FP titration midpoint, BtLBD, CHAPS-free: 4.5 nM
BtLBD [2]; 36 nM MB4628, no CHAPS
  mPmax, BtLBD: 210-260 mP
BtLBD [2]; 36 nM MB4628, no CHAPS (FIG. 3A)
  FP titration curve midpoint, BtLBD: 1 to 5 nM functional receptor
BtLBD [2]; Kd for MB4628, BtLBD without CHAPS, without CHAPS
  Kd: 0.0347 µM
BtLBD [2]; Kd for MB4628 from FP titration curve, BtLBD, with 2 mM CHAPS
  Kd: 0.0353 µM
LcLBD
  FP titration curve midpoint, LcLBD: 2.5 nM functional receptor
  mPmax, LcLBD: 220 mP
[3]
  Ki: 0.04 µM
[3]; radioligand-based assay
  ability to compete with [3H]ponasterone A / bind to MpLBD (in words): unimpaired

## CC(CO)CC[C@@H](O)[C@](C)(O)[C@H]1CC[C@@]2(O)C3=CC(=O)[C@@H]4C[C@@H](O)[C@@H](O)C[C@]4(C)[C@H]3CC[C@]12C (stereo partly drawn) [inokosterone]
[3]
  Ki: 0.065 µM

## CC(C)CC[C@@H](O)[C@](C)(O)[C@H]1CC[C@@]2(O)C3=CC(=O)[C@]4(O)C[C@@H](O)[C@@H](O)C[C@]4(C)[C@H]3[C@H](O)C[C@]12C [muristerone A]
MpLBD [4]
  Ki: 0.03 µM
MpLBD [5]
  Ki: 0.149 µM
BtLBD [6]
  Ki: 0.0053 µM
BtLBD [7]
  Ki: 0.027 µM

## CC(C)CC[C@@H](O)[C@](C)(O)[C@H]1CC[C@@]2(O)C3=CC(=O)[C@@H]4C[C@@H](O)[C@@H](O)C[C@]4(C)[C@H]3CC[C@]12C [ponasterone A]
MpLBD [4]
  Ki: 0.00028 µM and ~0.0003 µM
MpLBD [5]
  Ki: 0.001 µM
BtLBD [6]
  Ki: 0.0048 µM
BtLBD [7]
  Ki: 0.0074 µM

Reference: US20070292967A1, “Assay for Ligands of the Ecdysone Receptor” (COMMONWEALTH SCIENTIFIC AND INDUSTRIAL RESEARCH OR, priority 2003, published 2007)
